Assay results as given in patent US20110224208A1, “NOVEL INHIBITORS OF FLAVIVIRUS REPLICATION” (KATHOLIEKE UNIVERSITEIT LEUVEN, K.U. LEUVEN R&D, priority 2008, published 2011).
Converted amounts (≈) assume the structure as drawn.

Columns and labels:
[1] = system: HCV replicon I389luc-ubi-neo/NS3-3'/5.1; assay: Anti-HCV replicon assay (luciferase activity) in Huh-5-2 cells; assay type: cell-based, Hepatitis C virus; conditions: concentration required to inhibit luciferase activity in the replicon system by 50%
How it was run: (§1)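 Huh-5-2 cells carrying the luciferase HCV replicon, seeded 24 h, then exposed to serial compound dilutions without G418 for 72 h at 37° C, 5% CO2. Replication read as luciferase luminescence, expressed as percentage of untreated cultures; culture density measured in parallel by MTS.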

Huh-5-2 cells = assay: Proliferation of exponentially growing Huh-5-2 cells (MTS method); conditions: concentration required to inhibit the proliferation of exponentially growing Huh-5-2 cells by 50%
How it was run: as §1

[2] = system: HCV replicon (RNA) synthesis; assay: Quantitative analysis of HCV replicon RNA by Taqman real-time RT-PCR in Huh-5-2 cells; assay type: cell-based, Hepatitis C virus
Description: Replicon cells were plated at 7.5×10^3 cells per well in a 96-well plate plates at 37° C. and 5% CO2 in Dulbecco's modified essential medium containing 10% fetal calf serum, 1% nonessential amino acids and 1 mg/ml Geneticin. After allowing 24 h for cell attachment, different dilutions of compound were added to the cultures. Plates were incubated for 5 days, at which time RNA was extracted using the Qiamp Rneazyi Kit (Qiagen, Hilden, Germany). […] After initial activation of uracil-N-glycosylase at 50° C. for 2 minutes, RT was performed at 60° C. for 30 minutes, followed by inactivation of uracil-N-glycosylase at 95° C. for 5 minutes. Subsequent PCR amplification consisted of 40 cycles of denaturation at 94° C. for 20 seconds and annealing and extension at 62° C. for 1 minute in an ABI 7700 sequence detector. For each PCR run, negative template and positive template samples were used. The cycle threshold value (Ct-value) is defined as the number of PCR cycles for which the signal exceeds the baseline, which defines a positive value. The sample was considered to be positive if the Ct-value was <50. Results are expressed as genomic equivalents (GE).

[3] = Proliferation of exponentially growing Huh-5-2 cells (MTS method); conditions: human, CC50, concentration required to inhibit the proliferation of exponentially growing Huh-5-2 cells by 50%
How it was run: as §1

[4] = Hepatitis C virus, Huh-5-2, 72 h
[5] = Hepatitis C virus, Huh-5-2, concentration required to reduce the synthesis of HCV replicon by 50% as determined by real-time quantitative RT-PCR

COCCN1C(=O)c2ccccc2C(CNc2ccc(Cl)cc2)C1c1cccs1 (stereo not shown) [C78, 4-((4-chlorophenylamino)methyl)-2-(2-methoxyethyl)-3-(thiophen-2-yl)-3,4-dihydroisoquinolin-1(2H)-one]
IC50 [1, 4]: 50.5 mg/L (≈ 118 µM)
CC50 (Huh-5-2 cells; Table 2): 125 mg/L (≈ 293 µM)

COCCN1C(=O)c2ccccc2C(C(=O)Nc2cccc(OC)c2)C1c1cccs1 (racemic) [C2, 2-(2-methoxyethyl)-N-(3-methoxyphenyl)-1-oxo-3-(thiophen-2-yl)-1,2,3,4-tetrahydroisoquinoline-4-carboxamide]
IC50 ([1]; 72 hours, listed as C2 (trans)): 1.3 mg/L (≈ 2.98 µM)
CC50 (Huh-5-2 cells; Table 2, listed as C2 (trans)): 41.2 mg/L (≈ 94.4 µM)
CC50 (Huh-5-2 cells; Table 4): >50 mg/L
EC50 ([2]; concentration required to reduce the synthesis of HCV replicon by 50% as determined by real-time quantitative RT-PCR): 17.000 mg/L (≈ 38.9 µM)

COCCN1C(=O)c2ccccc2C(C(=O)Nc2cccc(OC)c2)C1C#C[Si](C)(C)C (stereo not shown) [C70, 2-(2-methoxyethyl)-N-(3-methoxyphenyl)-1-oxo-3-((trimethylsilyl)ethynyl)-1,2,3,4-tetrahydroisoquinoline-4-carboxamide]
IC50 [1, 4]: 3.33 mg/L (≈ 7.39 µM)
CC50 (Huh-5-2 cells; Table 2): 125 mg/L (≈ 277 µM)

COCCN1C(=O)c2ccccc2C(C(=O)NCc2ccc(OC)cc2)C1c1cccs1 (stereo not shown) [C79, N-(4-methoxybenzyl)-2-(2-methoxyethyl)-1-oxo-3-(thiophen-2-yl)-1,2,3,4-tetrahydroisoquinoline-4-carboxamide]
IC50 [1, 4]: 68.2 mg/L (≈ 151 µM)
CC50 (Huh-5-2 cells; Table 2): 125 mg/L (≈ 277 µM)

COCCN1C(=O)c2c(Cl)cccc2C(C(=O)Nc2cccc(OC)c2)C1c1cccs1 (stereo not shown) [C24, 8-Chloro-2-(2-methoxyethyl)-N-(3-methoxyphenyl)-1-oxo-3-(thiophen-2-yl)-1,2,3,4-tetrahydroisoquinoline-4-carboxamide]
IC50 [1, 4]: 35.7 mg/L (≈ 75.9 µM)
CC50 (Huh-5-2 cells; Table 2): 125 mg/L (≈ 265 µM)

COCCN1C(=O)c2ccccc2C(C(=O)Nc2cccc(OC)c2)C1c1cccs1 (racemic) [C1, 2-(2-methoxyethyl)-N-(3-methoxyphenyl)-1-oxo-3-(thiophen-2-yl)-1,2,3,4-tetrahydroisoquinoline-4-carboxamide]
IC50 ([1]; 72 hours, listed as C1 (cis)): 0.3 mg/L (≈ 0.687 µM)
CC50 at 72 h ([3]; Table 4): > 50 mg/L
CC50 (Huh-5-2 cells; Table 2, listed as C1 (cis)): 83.7 mg/L (≈ 192 µM)
EC50 [2, 5]: 24 mg/L (≈ 55 µM)

COCCN1C(=O)c2ccccc2C(C(=O)Nc2ccc(-c3ccco3)cc2)C1c1cccs1 (stereo not shown) [C159, N-(4-(furan-2-yl)phenyl)-2-(2-methoxyethyl)-1-oxo-3-(thiophen-2-yl)-1,2,3,4-tetrahydroisoquinoline-4-carboxamide]
IC50 [1, 4]: 0.028 mg/L (≈ 0.0593 µM)
CC50 at 72 h ([3]; Table 2): > 100 mg/L
CC50 at 72 h ([3]; Table 4): > 50 mg/L
EC50 [2, 5]: 0.064 mg/L (≈ 0.135 µM)

CCOC(=O)c1cccc(NC(=O)C2c3ccccc3C(=O)N(CCOC)C2c2cccs2)c1 (stereo not shown) [C46, Ethyl 3-(2-(2-methoxyethyl)-1-oxo-3-(thiophen-2-yl)-1,2,3,4-tetrahydroisoquinoline-4-carboxamido)benzoate]
IC50 [1, 4]: 1.4 mg/L (≈ 2.93 µM)
CC50 at 72 h ([3]; Table 2): 86.3 mg/L (≈ 180 µM)
CC50 at 72 h ([3]; Table 4): > 50 mg/L
EC50 [2, 5]: 1.19 mg/L (≈ 2.49 µM)

COCCN1C(=O)c2ccccc2C(C(=O)Nc2cccc(OC)c2)C1Cc1ccccc1 (stereo not shown) [C68, 3-Benzyl-2-(2-methoxyethyl)-N-(3-methoxyphenyl)-1-oxo-1,2,3,4-tetrahydroisoquinoline-4-carboxamide]
IC50 [1, 4]: 70.6 mg/L (≈ 159 µM)
CC50 (Huh-5-2 cells; Table 2): 125 mg/L (≈ 281 µM)

COCCN1C(=O)c2ccccc2C(C(=O)Nc2cccc(OC)c2)C1CC(F)(F)F (stereo not shown) [C71, 2-(2-methoxyethyl)-N-(3-methoxyphenyl)-1-oxo-3-(2,2,2-trifluoroethyl)-1,2,3,4-tetrahydroisoquinoline-4-carboxamide]
IC50 [1, 4]: 12.6 mg/L (≈ 28.8 µM)
CC50 (Huh-5-2 cells; Table 2): 125 mg/L (≈ 286 µM)
